What was measured:
[1] = test system: PSMA expressing LNCaP cells; set-up: method as in PMID 27635024, PMID 30237214; conditions: 60 min, 37 °C, normalized to ([^125I]IBA)KuE; cited from earlier work
[2] = test system: PC3-Pip xenografts in NSG mice; test: Fluorescence imaging in mice with clinical-grade fluorescence endoscope; assay type: in vivo, mouse
Description: Fluorescence imaging of PC3-Pip xenografts in NSG mice (2 h p.i. at a PSMA-HSG dose of 1 nmol and 6 h p.i. at a ligand dose of 0.1 nmol, respectively; n = 1 per compound and condition) was performed using a clinical-grade fluorescence laparoscopy set-up (KARL STORZ Endoskope GMBh & Co. KG). Cy5-based tumor imaging was performed using D-light P system and a prototype modified IMAGE 1 S light source with integrated Cy5 filter (both KARL STORZ Endoskope GMBh & Co. KG). Images were recorded using integrated KARL STORZ software and image processing was performed using custom MATLAB software that provided a signal intensity-based representation of the signal-to-background ratio (SBR; [45, 46]).
PC-3 PIP xenografts were established by subcutaneous injection of 5 × 10^6 PC3-PIP cells/mouse using 8–12-week-old male NSG mice (in-house breeding, Dpt. of Oncology, University of Lausanne) as previously described. Tumors reached a size of 4-8 mm in diameter after 5-6 days and were then immediately used for the fluorescence imaging studies.

[3] = test system: PC3-Pip tumor slices; test: Confocal fluorescence imaging of excised tumor specimens; assay type: in vivo, mouse
Description: After in vivo imaging, the tumors (n = 1 per condition) were excised and cut into 2 mm slices. Prior to imaging, slices were placed on a 35-mm culture dish containing a glass insert (MatTek Co.). Fluorescence confocal imaging was then performed using a Leica SP8 WLL microscope (Leica Microsystems). For assessment of tracer uptake Cy5 settings were used; λex = 633 nm, λem = 650–700 nm. Images were processed using accompanying LASX software (Leica Application Software Suite 4.8).

[4] = test system: LNCaP cells; test: Fluorescence microscopy of ligand internalization; assay type: cell-based, human; conditions: 100 nM
Description: Competitive binding experiments (IC50) were carried out in accordance with an established protocol using PSMA-expressing LNCaP cells and ([^125I]I-BA)KuE as standard radioligand. Internalization kinetics of [^99mTc]Tc-PSMA-HSG (0.5 nM) were investigated in a dual tracer internalization assay using PSMA expressing LNCaP cells and ([^125I]I-BA)KuE (0.1 nM) as an internal reference. Non-specific binding/internalization was determined in the presence of 10 µM 2-PMPA. Furthermore, PSMA-HSG internalization into LNCaP cells was investigated using fluorescence microscopy (100 nM PSMA-HSG). Please see the Supplementary Material for experimental details.
Two days prior to the experiment, LNCaP cells (approximately 100.000 cells/well) were seeded on round glass coverslips placed in the bottoms of the wells of 24-well plates. After cell adhesion and expansion, the culture medium was removed by aspiration, and the cells were washed with HBSS (1% BSA). […]
Fluorescence images were acquired on a Zeiss Axio Observer Z1 inverted microscope using a Plan Apochromat 20x, N.A. 0.8, air, DIC objective or a Plan Apochromat 63x, N.A. 1.4, oil, DIC objective. […] Fluorescence illumination was provided by an X-Cite fluorescence lamp. […]

[5] = Photophysical characterization; assay type: physicochemical; conditions: in a 5% human serum albumin solution
Description: The determination of the quantum yield and molar extinction coefficient of PSMA-HSG were performed according to previously published procedures.
Of the free dye HOOC-(SO3)Cy5(SO3)-Methyl (Sulfo-Cy5), a 100 µM stock solution in PBS was prepared. From this, a dilution series comprising the following concentrations was prepared: 7.5 µM, 5 µM, 2.5 µM, 1 µM, 0.75 µM, 0.5 µM, 0.25 µM. Of these solutions, absorption spectra (n=3 per concentration) were recorded using a Shimadzu UV-1280 spectrometer (Shimadzu, Kyoto, Japan). The concentrations were plotted against the mean of the maximum absorbance per concentration. A trendline was fitted, with the regression coefficient x 10^6 representing the molar extinction coefficient (R^2 ≥ 0.9900) in M^-1.L^-1.cm^-1.
The brightness in (M^-1.L^-1.cm^-1) was calculated using the following formula:
Brightness =Quantum yield hybrid label*Molar extinction coefficient free dye

[6] = target: PSMA (Homo sapiens, UniProt Q04609); set-up: Five patients with a diagnosis of initial (n = 4) or biochemical recurrence of (n = 1) histologically proven prostate cancer; from tissue; host or cells: prostate cancer patients: primary tumour, lymph nodes, resected tissue sections; method as in PMID 27635024, PMID 30237214; conditions: LNCaP cells, identical experimental conditions; cited from earlier work
Sequence of PSMA (Q04609 whole entry): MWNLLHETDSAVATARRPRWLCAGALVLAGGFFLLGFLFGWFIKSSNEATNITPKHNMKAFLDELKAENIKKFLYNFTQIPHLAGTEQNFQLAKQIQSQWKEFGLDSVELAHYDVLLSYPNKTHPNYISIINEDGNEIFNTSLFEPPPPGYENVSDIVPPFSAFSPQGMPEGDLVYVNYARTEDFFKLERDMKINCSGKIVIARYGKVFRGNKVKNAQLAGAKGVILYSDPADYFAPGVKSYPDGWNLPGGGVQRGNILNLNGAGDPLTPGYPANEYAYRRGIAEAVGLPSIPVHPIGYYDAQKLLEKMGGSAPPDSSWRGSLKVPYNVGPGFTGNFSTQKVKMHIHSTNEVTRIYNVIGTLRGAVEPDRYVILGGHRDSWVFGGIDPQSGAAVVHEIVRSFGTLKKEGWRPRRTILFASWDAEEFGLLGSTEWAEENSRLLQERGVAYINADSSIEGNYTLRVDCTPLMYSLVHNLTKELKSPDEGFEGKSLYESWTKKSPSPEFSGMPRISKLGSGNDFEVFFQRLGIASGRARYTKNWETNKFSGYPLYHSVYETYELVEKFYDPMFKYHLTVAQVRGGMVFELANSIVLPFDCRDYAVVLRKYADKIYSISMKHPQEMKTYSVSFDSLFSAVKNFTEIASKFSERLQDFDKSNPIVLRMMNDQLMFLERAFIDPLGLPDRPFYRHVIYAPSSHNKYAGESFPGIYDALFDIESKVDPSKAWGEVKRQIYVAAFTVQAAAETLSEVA

O=C(O)CC[C@H](NC(=O)NC(CCCCNC(=O)c1ccc([125I])cc1)C(=O)O)C(=O)O (stereo partly drawn) [([^125I]IBA)KuE]
internalization [% of reference] [1]: 100 % of reference

CC(=O)SCC(=O)N[C@H](CO)C(=O)N[C@H](CO)C(=O)N[C@H](CO)C(=O)N[C@H](CCCCNC(=O)CCCCCN1/C(=C/C=C/C=C/C2=[N+](C)c3ccc(S(=O)(=O)[O-])cc3C2(C)C)C(C)(C)c2cc(S(=O)(=O)O)ccc21)C(=O)N[C@H](Cc1ccc(O)cc1)C(=O)N[C@H](Cc1ccc2ccccc2c1)C(=O)N[C@H](CCCCNC(=O)CCCCCCC(=O)NCCCC[C@H](NC(=O)N[C@@H](CCC(=O)O)C(=O)O)C(=O)O)C(=O)O [PSMA-HSG]
in vivo tumor fluorescence, Cy5 fluorescence endoscope ([2]; 0.1 nmol, 6 h p.i.): only a weak fluorescence signal
in vivo tumor fluorescence, Cy5 fluorescence endoscope ([2]; 1 nmol, 2 h p.i.): high relative PSMA-HSG fluorescence intensity
confocal fluorescence microscopy of tumor slices ([3]; 2 h p.i./1 nmol): strong and homogenous PSMA-HSG fluorescence
confocal fluorescence microscopy of tumor slices ([3]; 6 h p.i./0.1 nmol (low dose/late timepoint)): detectable, but weak fluorescence signal
membrane binding, fluorescence microscopy ([4]; 30 min, 4 °C): intense and PSMA-specific membrane staining
internalization, fluorescence microscopy ([4]; 60 min, 37 °C): efficient ligand translocation into the cells
quantum yield [5]: 26%

PSMA-I&S: non-fluorescent parent compound, unlabeled
IC50 [6]: 0.0397 ± 0.0012 µM

— paper PMC13013135, “[^99mTc]Tc-PSMA-HSG for PSMA-targeted Hybrid Surgical Guidance: a new addition to the PSMA-I&S/I&T family” (European Journal of Nuclear Medicine and Molecular Imaging, 2025)
